Three molecules from US20150094225A1, “METHOD OF OBTAINING INFORMATION FOR IDENTIFYING TUMOR CELL UNDERGOING EPITHELIAL-MESENCHYMAL TRANSITION IN SAMPLE, METHOD OF IDENTIFYING TUMOR CELL UNDERGOING EPITHELIAL-MESENCHYMAL TRANSITION IN SAMPLE, METHOD OF DIAGNOSING SUBJECT HAVING TUMOR CELL UNDERGOING EPITHELIAL-MESENCHYMAL TRANSITION AND …” (Samsung Electronics Co., Ltd., priority 2013, published 2015) can be followed below.

Type in all cases: cell-based
Experiment [1] concerns breast cancer cells (MCF7). Nature of the experiment: western blotting of EMT-induced MCF7 cells cultured in TSA- or CoCl2-containing medium. (In general: Immunoblotting shows a protein as a band on a membrane.)
For experiment [2], the system named is breast cancer cells (MCF7). In words: RT-PCR of EMT-induced MCF7 cells cultured in medium including TSA, SB or CoCl2. Conditions: for expression of EpCAM / expression of Twist / expression of snail: 0.5 μM TSA or 2.5 mM SB.
Experiment [3] relates to prostate cancer cells (Du145). Nature of the experiment: western blotting and RT-PCR of EMT-induced DU145 cells cultured in medium including TSA, SB or CoCl2.
In experiment [4] the test system is lung cancer cells (NCI-1650). Nature of the experiment: western blotting of EMT-induced NCI-1650 cells cultured in TSA-containing medium. The conditions noted are these: NCI-1650, western blotting, 0.5 μM TSA, one day.
The test system of experiment [5] is lung cancer cells (NCI-1650). In words: RT-PCR of EMT-induced NCI-1650 cells cultured in TSA-containing medium. Conditions: NCI-1650, RT-PCR, 0.5 μM TSA, one day.
The mark [6] stands for this setting: MCF7, RT-PCR, 0.5 μM TSA, 2.5 mM SB or 400 μM CoCl2, one day.
Where [7] appears, read: DU145, western blotting/RT-PCR, 0.5 μM TSA, 2.5 mM SB or 400 μM CoCl2, one day.
[8] abbreviates: MCF7, western blotting (FIG. 15: western/RT-PCR not told apart), 0.5 μM TSA or 400 μM CoCl2, one day.
The mark [9] stands for this setting: MCF7, RT-PCR, 0.5 μM TSA or 400 μM CoCl2, one day.

Read-outs that look alike come from different tables or passages of the source.

For the molecule `[Cl-].[Cl-].[Co+2]` [CoCl2], in experiment [1], the “expression of HIF-1α” value is “gradually increased”, the “expression of N-cadherein” value is reported as “gradually increased” and the expression of snail entry is reported as “gradually increased”. For the same molecule, in experiment [2], the “expression of ACACA” value was “decreased”, the “expression of ACOT1” value is “decreased”, the “expression of FASN” value was “decreased” and the “expression of PPARγ” value is given as “decreased”. Besides, in experiment [2], the “expression of PTPLB” value is “decreased” and the “expression of SCD1” value is listed as “increased”. In addition, in experiment [3], the “expression of ACOT1” value was “decreased”, the “expression of EpCAM” value is “increased”, the “expression of PTPLB” value is listed as “decreased” and the “expression of SCD1” value is “increased”. In addition, the expression of snail entry in experiment [3] is on record as “increased”.
As to `CCCC(=O)[O-].[Na+]` [SB, sodium butyrate], in experiment [2] (MCF7, RT-PCR, one day), the “expression of EpCAM” value is reported as “decreased”, the “expression of Twist” value is “increased” and the “expression of snail” value was “increased”. In experiment [2] (setting [6]), the “expression of ACOT1” value was “decreased” and the “expression of PTPLB” value was “decreased”. Also, in experiment [3] (setting [7]), the “expression of ACOT1” value is recorded as “decreased”, the “expression of EpCAM” value was “increased”, the “expression of PTPLB” value is given as “decreased” and the “expression of SCD1” value is recorded as “increased”. In addition, in experiment [3] (setting [7]), the expression of snail entry is “increased”.
For `CC(/C=C/C(=O)NO)=C\[C@@H](C)C(=O)c1ccc(N(C)C)cc1` [TSA, Trichostatin A], in experiment [1] (setting [8]), the “expression of N-cadherein” value is “gradually increased” and the expression of snail entry was “gradually increased”. For the same molecule, the “expression of E-cadherin” value in experiment [1] (MCF7, western blotting, 0.5 μM TSA, cultured one day) is on record as “decreased”. Besides, in experiment [2] (setting [9]), the “expression of ACACA” value is given as “increased”, the “expression of PPARγ” value is on record as “decreased” and the “expression of SCD1” value was “increased”. In experiment [2] (MCF7, RT-PCR, one day), the “expression of EpCAM” value is on record as “decreased”, the “expression of Twist” value is on record as “increased” and the “expression of snail” value is “increased”. Moreover, in experiment [2] (setting [6]), the “expression of ACOT1” value is given as “decreased” and the “expression of PTPLB” value was “decreased”. The “expression of N-cadherin” value in experiment [2] (MCF7, RT-PCR, 0.5 μM TSA, one day) is reported as “increased”. Moreover, in experiment [4], the “expression of N-cadherein” value is “gradually increased”, the “expression of Vimentin” value is listed as “gradually increased” and the expression of snail entry was “gradually increased”. For the same molecule, in experiment [5], the “expression of ACOT1” value is “decreased”, the “expression of PTPLB” value was “decreased” and the “expression of SCD1” value is “increased”. Besides, in experiment [3] (setting [7]), the “expression of ACOT1” value was “decreased”, the “expression of EpCAM” value is on record as “increased”, the “expression of PTPLB” value is “decreased” and the “expression of SCD1” value is on record as “increased”. Moreover, the expression of snail result in experiment [3] (setting [7]) is “increased”.
